From ChEMBL document CHEMBL1201862, “PubChem BioAssay data set” (2004)
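Tested at 5 concentrations; 48 h exposure; 96-well plates; endpoints linearly interpolated, else capped at highest concentration. At the GI50, growth is halved.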 Calls of active or inactive are those of the source. No stated cut-off is given here; in the data, active = GI50 up to about 1.1 µM and inactive = higher.

Experiments:
Assay in all cases: NCI anticancer screen, dose series, 48 h
[1] = system: ACHN
[2] = system: CAKI-1
[3] = system: COLO 205
[4] = system: DU-145
[5] = system: HCT-15
[6] = system: HOP-62
[7] = system: HT-29
[8] = system: Hs-578T
[9] = system: MCF7
[10] = system: MDA-MB-435
[11] = system: MOLT-4
[12] = system: NCI/ADR-RES
[13] = system: OVCAR-3
[14] = system: OVCAR-8
[15] = system: PC-3
[16] = system: SF-295
[17] = system: SNB-75
[18] = system: T47D
[19] = system: UACC-257

SMILES | GI50 [1] | GI50 [2] | GI50 [3] | GI50 [4] | GI50 [5] [µM] | GI50 [6] | GI50 [7] | GI50 [8] | GI50 [9] | GI50 [10] | GI50 [11] | GI50 [12] | GI50 [13] | GI50 [14] | GI50 [15] | GI50 [16] | GI50 [17] | GI50 [18] | GI50 [19]
O=C1[C@@H]2[C@@H](c3ccccc3)[C@]2(Cl)C(=O)[C@H]2[C@H](c3ccccc3)[C@@]12Cl | > 100 µM (inactive) | > 100 µM (inactive) | > 100 µM (inactive) | > 100 µM (inactive) | > 100 | > 100 µM (inactive) | > 100 µM (inactive) | > 100 µM (inactive) | > 100 µM (inactive) | > 100 µM (inactive) | > 100 µM (inactive) | > 100 µM (inactive) | > 100 µM (inactive) | > 100 µM (inactive) | > 100 µM (inactive) | > 100 µM (inactive) | > 100 µM (inactive) | > 100 µM (inactive) | > 100 µM (inactive)
O=C1CSC(/C=C/c2ccccc2)N1c1ccc(-c2ccc(-n3c(-c4ccccc4)nc4ccccc4c3=O)cc2)cc1 (configuration not stated) | 23.6 µM (inactive) | 33.7 µM (inactive) | 18.2 µM (inactive) | 24.7 µM (inactive) | 20.7 | 28.5 µM (inactive) | 14.5 µM (inactive) | > 10 µM (inactive) | 22.6 µM (inactive) | 19.4 µM (inactive) | 15.7 µM (inactive) | 21.1 µM (inactive) | 21.2 µM (inactive) | 25.1 µM (inactive) | 22.2 µM (inactive) | 20.1 µM (inactive) | 0.562 µM (active) | 15.2 µM (inactive) | 30.3 µM (inactive)
NC(=O)c1ncn(C2CCC(CP(=O)(O)O)C2)c1N (configuration not stated) | > 100 µM (inactive) | > 100 µM (inactive) | > 100 µM (inactive) | > 100 µM (inactive) | > 100 | > 100 µM (inactive) | > 100 µM (inactive) | > 100 µM (inactive) | > 100 µM (inactive) | > 100 µM (inactive) | > 100 µM (inactive) | > 100 µM (inactive) | > 100 µM (inactive) | > 100 µM (inactive) | > 100 µM (inactive) | > 100 µM (inactive) | > 100 µM (inactive) | > 100 µM (inactive) | > 100 µM (inactive)
C=C(C)CC1(O[Si](C)(C)C)C(=O)C(OCC)=C1OCC (configuration not stated) | > 100 µM (inactive) | > 100 µM (inactive) | > 100 µM (inactive) | > 100 µM (inactive) | > 100 | > 100 µM (inactive) | > 100 µM (inactive) | > 100 µM (inactive) | > 100 µM (inactive) | > 100 µM (inactive) | > 100 µM (inactive) | > 100 µM (inactive) | > 100 µM (inactive) | > 100 µM (inactive) | > 100 µM (inactive) | > 100 µM (inactive) | > 100 µM (inactive) | > 100 µM (inactive) | > 100 µM (inactive)
COc1ccc(N2C(=O)CC(=O)N(C(=O)CCCCCCCCC(=O)N3C(=O)CC(=O)N(c4ccc(OC)cc4)C3=S)C2=S)cc1 | > 100 µM (inactive) | > 100 µM (inactive) | > 100 µM (inactive) | > 100 µM (inactive) | > 100 | > 100 µM (inactive) | > 100 µM (inactive) | > 100 µM (inactive) | > 100 µM (inactive) | 61.1 µM (inactive) | 54.3 µM (inactive) | > 100 µM (inactive) | > 100 µM (inactive) | > 100 µM (inactive) | > 100 µM (inactive) | > 100 µM (inactive) | > 100 µM (inactive) | 97.9 µM (inactive) | > 100 µM (inactive)
Cc1nn(-c2ccccc2)c2c1C(c1ccc(Cl)cc1)NC(=S)N2 (configuration not stated) | 20.7 µM (inactive) | 27.2 µM (inactive) | 17.2 µM (inactive) | 88.9 µM (inactive) | 17.5 | 16.1 µM (inactive) | 30.5 µM (inactive) | 29 µM (inactive) | 28.4 µM (inactive) | 21.5 µM (inactive) | 38.6 µM (inactive) | 24.3 µM (inactive) | 32.4 µM (inactive) | 22.5 µM (inactive) | 18.9 µM (inactive) | 24.5 µM (inactive) | 48.5 µM (inactive) | > 100 µM (inactive) | 36.6 µM (inactive)
CCOC(=O)C(C#N)C1=CC(=O)C(=O)c2ccc(OC)cc21 (configuration not stated) | 15.3 µM (inactive) | 29 µM (inactive) | 17 µM (inactive) | 19.5 µM (inactive) | 23.8 | 22 µM (inactive) | 31.6 µM (inactive) | 18.1 µM (inactive) | 16.1 µM (inactive) | 17.6 µM (inactive) | 48.5 µM (inactive) | 20.1 µM (inactive) | 17.9 µM (inactive) | 20 µM (inactive) | 28.5 µM (inactive) | 23.3 µM (inactive) | 20.8 µM (inactive) | 14.9 µM (inactive) | 17 µM (inactive)
Cc1ncc([N+](=O)[O-])n1CCNC(=O)CCCCn1ccnc1[N+](=O)[O-] | > 100 µM (inactive) | > 100 µM (inactive) | 36.3 µM (inactive) | > 10 µM (inactive) | > 100 | > 100 µM (inactive) | > 100 µM (inactive) | > 100 µM (inactive) | > 100 µM (inactive) | > 100 µM (inactive) | > 100 µM (inactive) | > 100 µM (inactive) | > 100 µM (inactive) | > 100 µM (inactive) | > 100 µM (inactive) | > 100 µM (inactive) | 97.5 µM (inactive) | > 100 µM (inactive) | > 100 µM (inactive)
